Measured values taken from US6897213B1, “Heterocycles as cholecystokinin (CCK) ligands” (Warner-Lambert Company, priority 1995, dated 2005).

Experiments:
[1] = target: T1, CCK-A receptor (Homo sapiens, UniProt P32238); experiment: CCK-A receptor binding affinity
T1 sequence (P32238 1-428): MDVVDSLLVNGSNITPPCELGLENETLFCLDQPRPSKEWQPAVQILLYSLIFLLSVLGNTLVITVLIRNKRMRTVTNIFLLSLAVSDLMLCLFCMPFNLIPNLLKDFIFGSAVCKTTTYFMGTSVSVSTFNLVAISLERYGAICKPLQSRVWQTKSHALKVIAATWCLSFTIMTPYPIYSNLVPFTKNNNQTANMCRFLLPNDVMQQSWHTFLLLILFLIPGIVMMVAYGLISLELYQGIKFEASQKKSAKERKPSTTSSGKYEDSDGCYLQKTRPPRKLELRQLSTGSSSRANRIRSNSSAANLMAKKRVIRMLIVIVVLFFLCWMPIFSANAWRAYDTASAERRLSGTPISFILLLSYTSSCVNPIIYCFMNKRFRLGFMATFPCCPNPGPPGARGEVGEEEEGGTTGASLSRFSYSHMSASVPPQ
From the text: (§1) The following table represents the CCK-A and CCK-B receptor binding affinities of the compounds.
(§2) The testing procedures are disclosed in Hays et al, Neuropeptides 1:53-62, 1980; and Satuer et al, Science 208:1155-1156, 1980.

[2] = target: T2, CCK-B receptor (Mus musculus, UniProt P56481); experiment: CCK-B receptor binding affinity (tritiated-pentagastrin displacement, mouse cerebral cortical membranes); conditions: 2 nM tritiated-pentagastrin, Ki by Cheng-Prusoff
T2 construct: from tissue; host or cells: mouse (male CFLP) cerebral cortex membranes
T2 sequence (P56481 1-453): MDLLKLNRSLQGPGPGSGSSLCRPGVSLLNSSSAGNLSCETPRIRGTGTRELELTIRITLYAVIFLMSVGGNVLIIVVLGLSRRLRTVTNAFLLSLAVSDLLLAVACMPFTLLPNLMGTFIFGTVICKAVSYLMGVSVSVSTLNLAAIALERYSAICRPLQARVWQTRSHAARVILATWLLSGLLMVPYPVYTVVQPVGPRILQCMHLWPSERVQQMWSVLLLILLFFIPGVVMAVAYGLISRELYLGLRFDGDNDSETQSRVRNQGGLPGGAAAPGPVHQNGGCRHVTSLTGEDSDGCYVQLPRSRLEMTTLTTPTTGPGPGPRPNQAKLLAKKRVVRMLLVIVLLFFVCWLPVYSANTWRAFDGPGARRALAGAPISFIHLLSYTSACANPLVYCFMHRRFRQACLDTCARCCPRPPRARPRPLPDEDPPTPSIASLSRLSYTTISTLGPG
Method: The biological activity of compounds of the present invention may be evaluated by employing an initial screening test which rapidly and accurately measures the binding of the tested compound to known CCK receptor sites. […] (See Hays et al, Neuropeptides 1:53-62, 1980; and Satuer et al, Science 208:1155-1156, 1980).
In this screening test, the cerebral cortices taken from male CFLP mice weighing between 30-40 g were dissected on ice, weighed, and homogenized in 10 volumes of 50 mM Tris-HCl buffer (pH 7.4 at 0-4° C.). The resulting suspension was centrifuged, the supernate was discarded, and the pellet was washed by resuspension in Tris-HCl buffer followed by recentrifugation. The final pellet was resuspended in 20 volumes of […] buffer (pH 7.2 at 23° C.) containing 130 mM NaCl, […], […], 1 […].
In saturation studies, cerebral cortical membranes were incubated at 23° C. for 120 minutes in a final volume of 500 μL of Hepes incubation buffer (pH 7.2) together with 0.2-20 nM tritiated—pentagastrin (Amersham International, England).
In the displacement experiments, membranes were incubated with a single concentration (2 nM) of ligand, together with increasing concentrations (10^11 to 10^14 M) of competitive test compound. In each case, the nonspecific binding was defined as that persisting in the presence of the unlabeled octapeptide CCK26-33 (10^−6M).
Following incubation, radioactivity bound to membranes was separated from that free in solution by rapid filtration through Whatman GF/B filters and washed three times with 4 mL of ice cold Tris-HCl buffer. Filters from samples incubated with tritiated-pentagastrin were placed in polyethylene vials with 4 mL of scintillation cocktail, and the radioactivity was estimated by liquid scintillation spectrometry (efficiency 47-52%).
The specific binding to CCK receptor sites was defined as the total bound tritiated-pentagastrin minus the amount of tritiated-pentagastrin bound in the presence of 10^−6 octapeptide, CCK26-33.
Saturation curves for specific tritiated-pentagastrin binding to mouse cortical membranes were analyzed by the methods of Scatchard (Ann. New York Acad. Sci. 51:660-672, 1949, and Hill (J. Physiol. 40:IV-VIII, 1910), to provide estimates for the maximum number of binding sites (Bmax) and the equilibrium dissociation constant (Ka).
In displacement experiments, inhibition curves were analyzed by either logit-log plots or the iterative curve fitting computer program ALLFIT (DeLean, Munson and Redbard, 1978) to provide estimates of the IC50 and nH (apparent Hill coefficient values).
The inhibition constant (Ki) of the test compound was then calculated according to the Cheng-Prusoff equation: [formula] where [L] is the concentration of radiolabel and Ka is the equilibrium dissociation constant.
The Ki values for several representative compounds of the present invention are present in Table I.
as §1, §2

SMILES	Ki [1]	Ki [2]
CC(C)Oc1cccc(-n2c(NNC(=O)Nc3cccc(C#N)c3)nc3ccccc3c2=O)c1 [No. 14, Hydrazinecarboxamide, N-(3-cyanohenyl)-2-[3,4-dihydro-3-[3-(1-methylethoxoy)phenyl]-4-oxo-2-quinazolinyl]-]	5390 nM	1.2 nM
CC(C)Oc1cccc(-n2c(NNC(=O)NC3CCCCC3)nc3ccccc3c2=O)c1 [No. 15, Hydrazinecarboxamide, N-(cyclohexyl)-2-[3,4-dihydro-3-[3-(1-methylethoxy)phenyl]-4-oxo-2-quinazolinyl]-]	17700 nM	105 nM
CN(C)c1cccc(-n2c(NNC(=O)Nc3cccc(C#N)c3)nc3ccccc3c2=O)c1 [No. 40]	5740 nM	18.1 nM

Further compounds by falling Ki [1], results first:

Ki [1]	Ki [2]	SMILES
3640 nM	12.9 nM	CC(C)Oc1cccc(-n2c(NNC(=O)Nc3ccc(Cl)cc3)nc3ccccc3c2=O)c1 [No. 13, Hydrazinecarboxamide, N-(4-Chlorophenyl)-2-[3,4-dihydro-3-[3-(1-methylethoxy)phenyl]-4-oxo-2-quinazolinyl]]
3580 nM	2 nM	CC(C)Oc1cccc(-n2c(NNC(=O)Nc3cccc(C(=O)OC(C)(C)C)c3)nc3ccccc3c2=O)c1 [No. 7]
3430 nM	16 nM	CC(C)Oc1cccc(-n2c(NNC(=O)Nc3ccc(Br)cc3)nc3ccccc3c2=O)c1 [No. 1, Hydrazinecarboxamide, N-(4-bromophenyl)-2-[3,4-dihydro-3-[3-(1-methylethoxy)-phenyl]-4-oxo-2-quinazolinyl]-]
1760 nM	53.4 nM	CCOC(=O)c1cccc(NC(=O)NNc2nc3ccccc3c(=O)n2-c2ccc(Cl)c(Cl)c2)c1 [No. 21]
